Measurements from publication PMC7024169, “Synthesis and Antimalarial Activity of 1,4-Disubstituted Piperidine Derivatives” (Molecules, 2020).

Tests used:
[1] = tested on: Plasmodium falciparum 3D7 Strain; test: Antiplasmodial SYBR Green I assay, chloroquine-sensitive 3D7 strain; format: cell-based
[2] = tested on: Plasmodium falciparum W2 Strain; test: microbe, parasite or virus in culture; format: cell-based
HUVEC cells = conditions: human

CCN(CC)CCCC(C)Nc1ccnc2cc(Cl)ccc12 (centres unmarked) [CQ, chloroquine, reference compound]
IC50 ([1]; Plasmodium falciparum, chloroquine-sensitive 3D7, 48 h incubation, SYBR Green I, read-out: IC50 ± SD, Plasmodium falciparum 3D7 Strain): 0.0224 ± 0.00324 µM | IC50 ([2]; Plasmodium falciparum, W2, 48 h, read-out: IC50 ± SD, Plasmodium falciparum W2 Strain): 0.134 ± 0.0323 µM

O=C(COc1ccccc1)N1CCC(N(C(=O)COc2ccccc2)c2ccccc2)CC1 [Compound 10]
Selectivity Index (3D7) =CC50/IC50 ([1]; CC50 HUVEC / IC50 3D7): >8.9 | Selectivity Index (W2) =CC50/IC50 ([2]; CC50 HUVEC / IC50 W2): >5.3 | CC50 ± SD, HUVEC Cells (HUVEC cells): >0.1 µM
